Results as given in article PMC4346889, “Discovery of Akt Kinase Inhibitors through Structure-Based Virtual Screening and Their Evaluation as Potential Anticancer Agents” (International Journal of Molecular Sciences, 2015).

Assays:
[1] = tested on: HEK-293 normal human embryonic kidney cells; assay: Cytotoxicity evaluation, ATPLite cell viability; assay type: cell-based; details: HEK293, 48 h, concentration required to inhibit cell growth by 50%, 2 days incubation
Description: (§1) The 26 test compounds (as listed in Figure 4) were further evaluated at 100 µM for their cytotoxicity against HCT-116 human colon cancer cells and HEK-293 normal human embryonic kidney cells. […] Their chemical structures are shown in Figure S1 in the Supplementary Material.
(§2) Compounds were evaluated at 100 µM for their cytotoxicity against HCT-116 human colon cancer cells and HEK-293 normal human embryonic kidney cells. Cells were seeded at a density of 1 × 10^4 cells/well in 96-well plates and allowed to attach overnight. Cells were then treated with test compounds or 1% DMSO (vehicle control) and incubated at 37 °C in an atmosphere of 5% CO2 for 2 days. The ATPLite kit (PerkinElmer, Waltham, MA, USA) was used for detecting the cell viability.

[2] = tested on: HCT-116 human colon cancer cells; assay: Cytotoxicity evaluation, ATPLite cell viability; assay type: cell-based; details: for IC50: Homo sapiens, HCT-116, 48 h, concentration required to inhibit cell growth by 50%, 2 days incubation; for Selectivity index: ratio of IC50 for HEK-293/IC50 for HCT-116
[3] = molecular target: T1, Akt kinase (Homo sapiens, UniProt P31749); assay: Akt kinase inhibition assay (EKS-400A assay kit); assay type: biochemical
T1 construct: purchased Enzo Life Sciences EKS-400A
T1 sequence (P31749 whole entry): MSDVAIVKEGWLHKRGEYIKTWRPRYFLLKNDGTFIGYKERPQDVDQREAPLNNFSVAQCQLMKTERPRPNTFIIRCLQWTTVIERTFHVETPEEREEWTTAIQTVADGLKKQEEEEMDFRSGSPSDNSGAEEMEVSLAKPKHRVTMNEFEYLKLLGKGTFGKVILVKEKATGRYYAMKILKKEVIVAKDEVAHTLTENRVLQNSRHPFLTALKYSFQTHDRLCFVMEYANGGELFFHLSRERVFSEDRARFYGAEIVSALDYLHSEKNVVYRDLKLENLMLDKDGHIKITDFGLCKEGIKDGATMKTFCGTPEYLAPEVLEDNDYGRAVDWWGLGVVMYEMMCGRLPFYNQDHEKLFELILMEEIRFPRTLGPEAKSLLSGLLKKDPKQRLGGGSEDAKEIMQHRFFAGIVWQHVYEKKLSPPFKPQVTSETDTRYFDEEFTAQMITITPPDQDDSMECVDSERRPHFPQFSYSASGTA
Description: The 48 selected compounds from virtual screening were assessed at 100 µM for their ability to inhibit Akt kinase activity using the EKS-400A assay kit (Enzo Life Sciences, Farmingdale, NY, USA).
Compounds were evaluated at 100 µM for their ability to inhibit Akt kinase activity using the EKS-400A assay kit (Enzo Life Sciences). Test compounds or 1% DMSO (vehicle control) were incubated with the 8 ng pure Akt kinase in Hanks’ Balanced Salt Solution (HBSS) at 37 °C for 30 min.

[4] = molecular target: T1, Akt kinase; details: cited from earlier work
[5] = tested on: HCT-116 human colon cancer cells; assay: Cytotoxicity evaluation, ATPLite cell viability; assay type: cell-based; details: at 100 µM, compared with reference H-89
Description: as §1, §2

Compound	IC50 [1] [µM]	IC50 [2] [µM]	IC50 [3] [µM]	Selectivity index [2]	inhibition at 100 µM ([3]; at 100 µM) [%]	remaining activity at 100 µM ([3]; compound at 100 µM, read-out: Akt kinase residual activity) [%]	pan-Akt kinase inhibitor activity [4]	cytotoxic activity against HCT-116 compared to H-89 [5]
O=S(=O)(NCCNC/C=C/c1ccc(Br)cc1)c1cccc2cnccc12 [Compound H-89, H-89, reference compound]	112	78.9	–	–	–	–	–	–
Cc1nn(C)cc1-c1nnc(SCC(=O)Nc2cc(C(F)(F)F)ccc2Cl)n1-c1ccc(Cl)cc1 [Compound a46]	139	11.1	201	12.5	–	–	–	–
Nc1ncnc2nc(SCC(=O)Nc3ccc(Br)cc3)[nH]c12 [Compound a48]	153	9.5	–	16.1	75	< 60	–	–
CCn1c(-c2nonc2N)nc2c(C#CC(C)(C)O)ncc(OC[C@H]3CCCNC3)c21 [GSK690693]	–	–	–	–	–	–	low nanomolar activity	–
Cc1cccc(Nc2nc3nonc3nc2N/N=C/c2cc3c(cc2Br)OCO3)c1C [a33]	165	109	–	1.5	–	–	–	more potent or comparable cytotoxic activity to that of H-89
Cc1cccc(-c2nc3cc(/N=C/c4c(C)cc(O)c(C)c4O)ccc3o2)c1 [a44]	102	50.6	–	2.0	–	–	–	more potent or comparable cytotoxic activity to that of H-89
